In patent US7674819B2 (Warner-Lambert Company LLC, priority 2005, dated 2010):

Target: T1, androgen receptor (Homo sapiens, UniProt P10275)
T1 sequence (P10275 1-920 Q868H): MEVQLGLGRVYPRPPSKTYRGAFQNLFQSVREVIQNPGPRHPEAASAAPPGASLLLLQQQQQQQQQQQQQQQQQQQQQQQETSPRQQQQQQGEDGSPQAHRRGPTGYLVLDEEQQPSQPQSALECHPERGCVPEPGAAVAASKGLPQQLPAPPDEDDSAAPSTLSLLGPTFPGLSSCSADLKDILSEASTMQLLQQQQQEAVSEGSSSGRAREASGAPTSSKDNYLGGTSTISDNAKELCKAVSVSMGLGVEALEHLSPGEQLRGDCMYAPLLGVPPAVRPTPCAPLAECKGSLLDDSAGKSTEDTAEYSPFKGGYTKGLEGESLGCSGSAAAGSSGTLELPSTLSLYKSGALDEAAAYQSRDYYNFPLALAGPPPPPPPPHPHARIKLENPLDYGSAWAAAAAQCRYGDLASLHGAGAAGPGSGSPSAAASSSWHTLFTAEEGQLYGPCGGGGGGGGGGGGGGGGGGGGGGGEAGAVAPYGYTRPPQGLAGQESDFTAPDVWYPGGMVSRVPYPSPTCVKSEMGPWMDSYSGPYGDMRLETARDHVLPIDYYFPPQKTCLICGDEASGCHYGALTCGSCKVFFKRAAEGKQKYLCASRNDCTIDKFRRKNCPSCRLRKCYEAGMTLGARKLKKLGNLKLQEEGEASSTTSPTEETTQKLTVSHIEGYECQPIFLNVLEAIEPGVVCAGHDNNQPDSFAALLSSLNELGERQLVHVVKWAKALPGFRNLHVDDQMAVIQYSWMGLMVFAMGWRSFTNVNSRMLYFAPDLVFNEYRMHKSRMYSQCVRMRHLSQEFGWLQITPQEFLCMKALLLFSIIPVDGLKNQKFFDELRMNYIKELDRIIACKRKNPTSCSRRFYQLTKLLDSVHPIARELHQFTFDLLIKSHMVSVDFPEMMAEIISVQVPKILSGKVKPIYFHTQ
Experiment: AR Antagonist Cell Assay (MDA-MB453-MMTV clone 54-19, luciferase reporter)
Format: cell-based
Conditions: inhibition of induction by DHT (final concentration at 100 μM), 17 hr; compound 0.32-1000 nM; mean of multiple tests
In short: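 MDA-MB453 breast tumour cells stably carrying an ARE-containing MMTV promoter driving firefly luciferase, plated overnight at 37° C in charcoal-treated serum medium. DHT added (final […]) and incubated 17 hr at 37° C. Luminescence read after adding luciferase buffer; values are means of multiple tests.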

Structure (SMILES) | IC50
CCCCN1CC(C)(C)C(Oc2ccc(C#N)c(C(F)(F)F)c2)C1=O (single isomer, unassigned; (+)) [Example 20, (+)-4-(1-Butyl-4,4-dimethyl-2-oxo-pyrrolidin-3-yloxy)-2-trifluoromethyl-benzonitrile] | 0.013 µM
CCCS(=O)(=O)N1CC(C)(C)C(Oc2ccc(C#N)c(C(F)(F)F)c2)C1=O (single isomer, unassigned; (+)) [Example 82, (+)-4-[4,4-Dimethyl-2-oxo-1-(propane-1-sulfonyl)-pyrrolidin-3-yloxy]-2-trifluoromethyl-benzonitrile] | 0.056 µM
CC[C@H](C)N1CC(C)(C)[C@@H](Oc2ccc(C#N)c(C(F)(F)F)c2)C1=O [Example 1, (3R,S)-(+)-4-(1-sec-Butyl-4,4-dimethyl-2-oxo-pyrrolidin-3-yloxy)-2-trifluoromethyl-benzonitrile] | 0.033 µM
CCCN1CC(C)(C)C(Oc2ccc(C#N)c(C(F)(F)F)c2)C1=O (stereo not shown) [Example 4, 4-(4,4-dimethyl-2-oxo-1-propyl-pyrrolidin-3-yloxy)-2-trifluoromethyl-benzonitrile] | 0.026 µM
CCCN1CC(C)(C)[C@@H](Oc2ccc(C#N)c(C(F)(F)F)c2)C1=O [Example 4A, (+)-4-(1-Propyl-4,4-dimethyl-2-oxo-pyrrolidin-3-yloxy)-2-trifluoromethyl-benzonitrile (E2)] | 0.092 µM

Same assay, conditions: inhibition of induction by DHT (final concentration at 100 μM), 17 hr; compound 0.32-1000 nM; mean of multiple tests; read-out: IC50

Structure (SMILES) | IC50
CC1(C)CN(S(C)(=O)=O)C(=O)C1Oc1ccc(C#N)c(C(F)(F)F)c1 (stereo not shown) [Example 81, 4-(1-methanesulfonyl-4,4-dimethyl-2-oxo-pyrrolidin-3-yloxy)-2-trifluoromethyl-benzonitrile] | 0.199 µM
CC(c1ccccc1)N1CC(C)(C)C(Oc2ccc(C#N)cc2Cl)C1=O (stereo not shown) [Example 109] | 0.014 µM
